Assay results from PubChem BioAssay AID2610 (Broad Institute, 2010).
Inconclusive results are not listed. Activity calls are given as the source filed them.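 How the source made its calls: active means EC50 no more than tenfold above the top concentration tested, with valid fit and all samples agreeing; inconclusive means flat fit at 30 to 70% inhibition, poor fit, or split samples; inactive means EC50 beyond tenfold the top concentration tested.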

Tested on: BJeLR fibroblast viability, Alamar Blue fluorescence, 48 h
Experiment: cytotoxicity toward RAS-transformed BJeLR fibroblasts, dose response, cell-based, alamar blue fluorescence, 48 h, cherrypicked samples (AID 2610);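 further: BJ fibroblasts with hTERT plus SV40 large and small T and HRAS V12; EC50 for loss of viable cells so potency reflects cytotoxic compounds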

Structure (SMILES)	EC50
Cc1cc(C)c2c(CCl)cc(=O)oc2c1	0.116 µM
COc1ccc(-c2nnc(NC(=O)c3ccc(S(=O)(=O)N4CCc5ccccc5C4)cc3)o2)cc1	2.6 µM
COc1ccc2nc(C)cc(N/N=C/c3ccc(F)cc3)c2c1	0.292 µM
CNC1=C(N(C(C)=O)c2ccc(Br)cc2)C(=O)c2ccccc2C1=O	1.35 µM
COc1ccccc1/C=C1\SC(=O)N(CCC(=O)NCCCn2ccnc2)C1=O	> 13.3 µM (inactive)
O=C(COc1ccc(Cl)cc1)Nc1ccc(C(=O)NCc2cccnc2)cc1	4.42 µM
COc1ccc(-c2cc3nc(C)n(N)c(=O)c3s2)cc1	> 13.3 µM (inactive)
CCc1ccc(NC(=O)[C@H](Cc2c[nH]c3ccccc23)NC(=O)[C@@H]2Cc3ccccc3CN2)cc1	> 13.3 µM (inactive)
COc1ccccc1C(=O)Nc1nc2ccccc2[nH]1	> 13.3 µM (inactive)
CCC1=Nc2cc(C(=O)NCc3ccco3)ccc2Sc2ccc(C)cc21	< 0.104 µM
Cc1ccc(-c2nn(CC(=O)NCc3cc(-c4nn(C)c(=O)c5ccccc45)ccc3C)c(=O)c3ccccc23)cc1	> 13.3 µM (inactive)
O=C(Oc1ccc(-c2nc(-c3ccccn3)no2)cc1)c1ccccc1	> 13.3 µM (inactive)
CCCCC(=O)NC(c1ccc(C(C)C)cc1)c1ccc2cccnc2c1O (configuration not stated)	6.42 µM
C/C(=N\Nc1ncnc2sc(C)c(C)c12)c1ccccn1	< 0.104 µM
O=C(NCc1cccnc1)c1ccc(-c2cc3ccccc3oc2=O)cc1	1.34 µM
CCCCCCCN(C(=O)CCl)c1cccc(C)c1	0.429 µM
COc1cccc(NC(=O)n2ncc3c(C)cccc32)c1	> 13.3 µM (inactive)
CCOc1ccc(C2=Nn3c(nnc3-c3ccccc3OC)SC2)cc1	< 0.104 µM
Cc1nc2ccc(CN(C)c3ccc(C(=O)N[C@@H](CCC(=O)O)C(=O)O)s3)cc2c(=O)[nH]1	> 13.3 µM (inactive)
CC1(C)C[C@H]2C=C(C=O)[C@]3(C=O)C[C@]3(C)[C@H]2C1	0.58 µM
COc1ccc(OC)c2c1C(=O)C(Cl)=C(Cl)C2=O	2.98 µM
COc1ccc(C2C(O)C(c3c[nH]c4ccccc34)=NN2C(=O)CCl)cc1 (configuration not stated)	0.307 µM

Structure (SMILES)	EC50
Cc1cc(-n2c(SCC(=O)NCCC3=CCCCC3)nc3n[nH]c(C)c3c2=N)ccc1Cl	> 13.3 µM (inactive)
CCN1/C(=C/c2ccc3cc(C)ccc3[n+]2CC)Sc2ccc3sccc3c21	< 0.104 µM
CCCc1cc(=O)[nH]c(SCC(=O)c2c(N)n(CC(C)C)c(=O)n(C)c2=O)n1	> 13.3 µM (inactive)
CC1=CC(C)(C)N(S(=O)(=O)c2ccc(C)cc2)c2cc(C)ccc21	0.386 µM
Cc1occc1C(=O)N/N=C/c1ccc2c(c1)OCO2	> 13.3 µM (inactive)
CC(=O)c1ccc(Oc2cc(C)nc(-n3nc(C)cc3C)n2)cc1	< 0.104 µM
CCCCCN=C(N)N/N=C/c1c[nH]c2ccc(OC)cc12	2.98 µM
O=C1C=C(c2cccs2)C[C@H](c2ccccc2)[C@H]1n1nnc([N+](=O)[O-])n1	< 0.104 µM
Cc1sc2ncnc(N/N=C/c3ccccc3O)c2c1C	3.7 µM
C/C(=N\NC(=O)c1ccccc1F)c1ccccn1	4.14 µM
COc1cc2c(c(OC)c1OC)-c1ccc(O)c(=O)cc1C(NC(C)=O)CC2 (configuration not stated)	< 0.104 µM
Nc1nc(N)c2c(ccc3nccc32)[nH]1	> 13.3 µM (inactive)
COc1ccc(S(=O)(=O)N2c3cc(Cl)ccc3Oc3nc4ccccc4nc32)cc1	0.193 µM
COc1cc2c(cc1OC)C(c1cc(Br)ccc1F)N(C(=O)CCl)CC2 (configuration not stated)	1.31 µM
O=C(N/N=C/c1ccccc1Cl)c1[nH]c2ccc(Br)cc2c1-c1ccccc1	0.149 µM
CC(C)Oc1ccccc1C1CC(=O)Nc2cc3c(cc21)OCCO3 (configuration not stated)	0.307 µM
O=c1cnnc(N/N=C/c2ccccn2)[nH]1	1.03 µM
O=C(CCl)N(CCCNC(=O)C(F)(F)F)c1ccc([N+](=O)[O-])cc1	0.424 µM
Nc1nc(CCl)nc(Nc2cccc3ccccc23)n1	0.493 µM
CC(C)(C)c1nnc(N/N=C/c2cc(Br)ccc2O)n(N)c1=O	1.4 µM
O=c1c2ccccc2cnn1-c1nc2ccccc2[nH]1	> 13.3 µM (inactive)
Cc1ccccc1OCC(O)CNC1CCC(NCC(O)COc2ccccc2C)CC1 (configuration not stated)	0.582 µM

Structure (SMILES)	EC50
CCN(CC)C(=O)c1ccc(NC(=O)Nc2ccccc2F)cc1	> 13.3 µM (inactive)
FC(F)(F)c1nnc2c(Sc3ccc(Cl)cc3)nc3ccccc3n12	0.531 µM
COc1ccc(CCNc2nnc(Sc3nnnn3-c3ccccc3)s2)cc1OC	0.344 µM
CCCOc1ccc(C(=O)C(CCC(CNCC)C(=O)c2ccc(OCCC)cc2)CNCC)cc1 (configuration not stated)	0.638 µM
COc1ccc2c(C)nc(Nc3nc(-c4ccccc4)cc(=O)[nH]3)nc2c1	1.2 µM
Cn1c(/C=C/c2ccc([N+](=O)[O-])o2)nc2ccccc2c1=O	0.544 µM
COc1ccc(N2C(=O)/C(=C/c3ccc(C)o3)C(=O)NC2=S)cc1	> 13.3 µM (inactive)
CC[C@@]1(O)C(=O)OCc2c1cc1n(c2=O)Cc2cc3c(N)cccc3nc2-1	< 0.0307 µM
CCOc1ccc(OCc2cccc(C(=O)O)c2)cc1	> 13.3 µM (inactive)
CCNC(=S)NNC(=O)c1cc(-c2ccc(OCC)cc2)nc2ccccc12	> 13.3 µM (inactive)
O=C1SC(Cc2ccccc2)C(=O)N1c1ccccc1 (configuration not stated)	2.35 µM
Cc1cccc(Nc2nc(N)nc(CCl)n2)c1	2.21 µM
CCN1/C(=C/C(C)=C/c2sc3ccccc3[n+]2CC)Sc2ccccc21	0.152 µM
O=C(N/N=C/c1cccnc1)c1ccc(NC(=O)C(c2ccccc2)c2ccccc2)cc1	0.344 µM
CCOc1cc(/C=C2\COc3ccccc3C2=O)cc(Br)c1OCC(=O)N(C)C	3.08 µM
CCCCCN=Cc1c(C)[nH]n(-c2nc3ccccc3s2)c1=O	> 13.3 µM (inactive)
COc1ccccc1N(C(=O)CCl)c1cn(C(C)=O)c2ccccc12	0.717 µM
O=C(CCCCCCCCCCC(=O)NCc1cccnc1)NCc1cccnc1	> 13.3 µM (inactive)
COc1ccc(N/C=C/C(=O)c2cc(OC)c(OC)c(OC)c2)cc1	0.206 µM
COc1cccc(N(C(=O)CCl)C(C(=O)NCCc2ccccc2)c2cccs2)c1 (configuration not stated)	0.212 µM
CC[C@@]1(O)C(=O)OCc2c1cc1n(c2=O)Cc2cc3c(CN(C)C)c(O)ccc3nc2-1	< 0.0392 µM
Nc1nc(CCl)nc(N(c2ccccc2)c2ccccc2)n1	0.121 µM

Structure (SMILES)	EC50
C=C1C(=O)O[C@@H]2C[C@@H](C)[C@@H]3C=CC(=O)[C@@]3(C)[C@@H](OC(=O)CC(=O)O[C@H]3[C@@H]4C(=C)C(=O)O[C@@H]4C[C@@H](C)[C@@H]4C=CC(=O)[C@]43C)[C@H]12	< 0.0417 µM
COc1cccc2c1C(=O)c1c(O)c3c(c(O)c1C2=O)C[C@@](O)(C(=O)CO)C[C@@H]3O[C@H]1C[C@H](N)[C@H](O)[C@H](C)O1	< 0.104 µM
Cc1ccc(Nc2nc(N)nc(CCl)n2)c(C)c1	0.388 µM
COC(=O)c1cccc(Nc2c3c(nc4ccccc24)CCC3)c1	2.6 µM
CN(C)CCCNc1c2ccccc2nc2ccccc12	0.506 µM
CCOc1ccc(Nc2nc(N)nc(CCl)n2)cc1	0.391 µM
COC(=O)C[C@]1(C(=O)OC)CN(C#N)N(c2ccc(Cl)cc2)C12c1ccccc1-c1ccccc12	0.762 µM
COCCCNC(=O)c1ccc2c3c(onc13)-c1ccccc1C2=O	3.15 µM
O=S(=O)(c1ccc(NC(=S)NCc2cccnc2)cc1)N1CCCCC1	< 0.133 µM
CCCCCCCCCC[n+]1cccc2c3ccccc3ccc21	8.03 µM
Cn1cccc1/C=C1\SC(=Nc2ccc(O)cc2)NC1=O	< 0.104 µM
FC(F)(F)c1nnc2c(Sc3ccccc3)nc3ccc(Cl)cc3n12	0.577 µM
Cc1cccc(NC2=NC(C)(C)N=C(N)N2)c1	> 13.3 µM (inactive)
COc1ccc(C(C(=O)NC2CCCCC2)N(C(=O)CCl)c2cccc(Cl)c2)cc1 (configuration not stated)	< 0.0732 µM
CCOc1ccc2c(c1)C(C)=CC(C)(C)N2S(=O)(=O)c1ccc(NC(C)=O)cc1	< 0.104 µM
Cc1ccc(N2C(=O)c3cccc4c([N+](=O)[O-])ccc(c34)C2=O)c2cccnc12	0.523 µM
O=C(NC(Nc1nc2ccc([N+](=O)[O-])cc2s1)(C(F)(F)F)C(F)(F)F)c1ccccc1	0.239 µM
COc1ccccc1-n1cnc2cc(NCc3cccs3)ccc21	< 0.104 µM
CCOC(=O)/C(=C\c1ccc([N+](=O)[O-])cc1)C(=O)c1cc(C(C)=O)c(Nc2ccccc2)s1	0.958 µM
COc1ccc(N(C(=O)CCl)C(C(=O)NCCc2ccccc2)c2cccs2)cc1Cl (configuration not stated)	< 0.0502 µM
CC1=CC(=O)C=C(C)C1=NOS(=O)(=O)c1ccccc1	3.01 µM
c1ccc2nc(-c3nc4ccccc4o3)ccc2c1	> 13.3 µM (inactive)

Structure (SMILES)	EC50
COc1ccc(C(=O)c2cc([N+](=O)[O-])ccc2N2CCOCC2)cc1	< 0.104 µM
CCCCCCCCCCn1c2c(c(=N)c3c1CCC3)CCC2	0.82 µM
O=C1N(c2ccccc2)C[C@@H]2C[C@@H](c3cc4ccccc4o3)N3CCC[C@@]123	0.61 µM
CCCC(=O)OCCNc1cc(Sc2nccn2C)c2nonc2c1[N+](=O)[O-]	2.51 µM
O=C1C(=O)c2ccc(-c3ccccc3)cc2-c2ccccc21	0.926 µM
O=Cc1ccc(O)c2ncccc12	0.463 µM
CSc1ccc(COC(=O)c2cc([N+](=O)[O-])ccc2N2CCOCC2)cc1	< 0.104 µM
Cn1cnc([N+](=O)[O-])c1Sc1ncnc2nc[nH]c12	> 13.3 µM (inactive)
COc1cccc(C(=O)N/N=C(/c2ccccc2)c2ccccn2)c1	0.821 µM
O=Cc1cc2ccccc2nc1SCc1ccc(Cl)c(Cl)c1	< 0.104 µM
CSc1cc(-c2ccccc2)n(Cc2ccccc2Cl)c(=O)c1C#N	0.709 µM
COc1ccc(/C=N/NC(=O)c2[nH]c3ccc(Br)cc3c2-c2ccccc2)cc1	< 0.0703 µM
O=C(CCl)Nc1cc(SCC(O)CO)cc([N+](=O)[O-])c1 (configuration not stated)	0.997 µM
CCCN1C=CC(=C2C(=O)c3ccccc3C2=O)C=C1	> 13.3 µM (inactive)
O=C(COc1ccc([N+](=O)[O-])cc1)Nc1ccc(C(=O)NCc2cccnc2)cc1	> 13.3 µM (inactive)
COc1ccc(C[C@H]2NC[C@H](O)[C@H]2OC(C)=O)cc1	< 0.0647 µM
O=C(Nc1nc2ccccc2[nH]1)c1ccccc1F	> 13.3 µM (inactive)
COc1ccc(C(C(=O)NC2CCCCC2)N(C(=O)CCl)c2ccc(C)cc2)cc1 (configuration not stated)	0.454 µM
C=C1C(=O)C=C2CN(C(=O)c3ccccc3)[C@@](Cc3ccc(F)cc3)(C(=O)OC)[C@@H]12	0.14 µM
